Tests used:
[1] = test system: human prostate cancer cell lines (LNCaP, PC3 and DU145); assay: 3H-thymidine incorporation, prostate cancer cells; format: cell-based; conditions: 0.06 or 6 μM, 24h then 48h pulse; in words (Fig 4)
Method: For assays involving 14mer peptides only human prostate cancer cell lines (LNCaP, PC3 and DU145) were obtained from ATCC (American Tissue Type Culture Collection, Rockville, MD, USA). Cells were cultured in DMEM (Dulbecco’s […], Life Technologies, Grand Island, NY, USA) supplemented with 10% fetal calf serum (FCS, heat-inactivated), 100 IU/ml penicillin and 10 μg/ml streptomycin (all CSL, Parkville, Victoria, Australia) in 75 cm^2 culture flasks (Becton Dickinson, Franklin Lakes, NJ, USA) and were maintained at 37°C in a humidified incubator with […]. Incorporation of ^3H-thymidine was used to assess DNA synthesis. Cells were seeded overnight at 0.5 x 10^5 cells per well in 24-well tissue culture plates in DMEM culture medium (supplemented as above with 10% FCS, penicillin and streptomycin). Cell growth was synchronised by culturing cells in DMEM containing 0.1% bovine serum albumin (supplemented with penicillin and streptomycin, but without FCS) for 24h. […]
Fig 4 EPL001 and EPL030 effects on human prostate cancer cell growth in vitro. Cell proliferation was determined by ^3H-thymidine incorporation. […]

rat bone marrow cells = assay: Bone marrow cell assay, time-lapse cell counts over 24h; format: cell-based; conditions: EPL001, EPL030 at 6μM, EPL120 at 5μM final concentration, in words (Fig 6)
Method: The method has been described previously at length. Bone marrow cells, consisting of various cell types including mesenchymal stem cells and fibroblasts, were cultured from adult male rats (Rattus norvegicus, SD strain). These cells were passaged from a growing primary stock in a T75 tissue culture flask (Sarstedt) into a 48 well tissue culture plate (IWAKI), with a cell density of 1 x 10^5/ml. The cell culture media, henceforth referred to as ‘supplemented a-MEMS,’ comprised α-MEMS media supplemented with 10% FCS and 1% penicillin/streptomycin (all Life Technologies, Carlsbad, CA, US). On the day of peptide addition to the cells, the supplemented α-MEMS was gently removed and fresh supplemented α-MEMS added, with 10% test material by volume to achieve micromolar concentrations, untreated controls receiving just fresh supplemented α-MEMS. (For dose levels see legends in respective result figures) All samples were filter sterilised using a Millex-GV […] syringe filter unit (Merck, Kenilworth, NJ, USA). The cells were imaged for 24 h using an incubated Zeiss Axiovert 135M microscope with a Prior Proscan II motorised stage, at 37 °C with a 5% CO2 in air feed. Each well of the 48-well tissue culture plate was then imaged for 24h every 5 min using Metamorph software (MDS Analytical Technologies, Wokingham, UK), with each well having four fields of view. The viability and cell numbers were reviewed by analysing the images captured over the 24h period and cell counts were taken at selected time points using the Metamorph software.
Fig 6 Bone marrow cells in culture exposed to long peptides. Cells were counted over 24h after exposure to the 14mer peptide EPL001 or its scrambled-sequence control EPL030 at 6μM final concentration or to the 20mer EPL120 at 5μM final concentration, compared to peptide-untreated controls.
Fig 7 Bone marrow cells in culture exposed to hexapeptides. Cells were counted over 24h after exposure to either EPL016 (= MKPLTG, the ‘Front 6’ of the 14mer EPL001) or EPL036 (= IEPVFT, the ‘Back 6’ of EPL030, the scrambled-sequence control of EPL001) at 1μM final concentration, compared to peptide-untreated controls.

PC3 cells = assay: MTS colorimetric viable cell assay, PC3; format: cell-based, human; conditions: for OD below that of EPL001: PC3 time course study
Method: Assays involving a range of peptides from 14mer down to 6mers assessed total viable PC3 or PNT2 cells using a 96-well plate MTS colorimetric assay (CellTiter 96 Aqueous One Solution Cell Proliferation Assay, Promega, Southampton, UK), with absorbance measured at 492 nm. Cells were seeded at 8,000 per well and grown for 27h. Peptides were administered at the outset to a final concentration of 30 μM (in 2 μl) to samples in triplicate. (A higher dosage was used than in the 14mer peptides study to shorten the timecourse of response.) Controls received buffer. Data are OD mean +/ − SEM, with statistical analysis by two tailed t-test. A time course study of the 14mers on PC3s, using the same technique, involved measurements at 24h and 48h.
Fig 5 Effects of a range of peptides on human prostate cancer cell growth in vitro. Assays involved a range of peptides from 14mers down to 6mers (Table 1), with viable cells assessed using a 96-well plate MTS colorimetric assay. Absorbance measured at 492 nm. Cells were seeded at 8,000 per well and grown for 27h. Peptides were administered at the outset to a final concentration of 30 μM (in 2 μl) to samples in triplicate. Controls received buffer. Data are OD mean +/- SEM, with statistical analysis by two tailed t-test. * p<0.05; **p<0.025.

| Sequence | Cell proliferation by 3H-thymidine incorporation [1] | Effect on bone marrow cells in culture (rat bone marrow cells) | OD below that of EPL001 (PC3 cells; 24h) [%] | OD below that of EPL001 (PC3 cells; 48h) [%] | Difference in percentage terms between control and test OD means (PC3 cells; PC3, 30 μM, 27h, MTS, 492 nm, triplicate) [%] |
| --- | --- | --- | --- | --- | --- |
| KLKMNGKNIEPVFT [EPL030, …, scrambled EPL001 control] | antiproliferative | pro-apoptotic | 18.9 | 51.3 |  |
| MKPLTGKVKEFNNI [EPL001, 14mer master test peptide …; ovine provenance] | antiproliferative | antiproliferative |  |  | −0.7 |

Source: PMC9714824, “Hexapeptides from mammalian inhibitory hormone hunt activate and inactivate nematode reproduction” (PLOS ONE, 2022)
